The values below come from patent US8846951B2 (AbbVie Inc., priority 2009, dated 2014).

Test [1] concerns the target T1, human serotonin 5-HT2c receptor (Homo sapiens, UniProt P28335).
T1 construct: expressed in transfected cells; host or cells: CHO cells (membrane homogenates)
T1 sequence (P28335 33-458): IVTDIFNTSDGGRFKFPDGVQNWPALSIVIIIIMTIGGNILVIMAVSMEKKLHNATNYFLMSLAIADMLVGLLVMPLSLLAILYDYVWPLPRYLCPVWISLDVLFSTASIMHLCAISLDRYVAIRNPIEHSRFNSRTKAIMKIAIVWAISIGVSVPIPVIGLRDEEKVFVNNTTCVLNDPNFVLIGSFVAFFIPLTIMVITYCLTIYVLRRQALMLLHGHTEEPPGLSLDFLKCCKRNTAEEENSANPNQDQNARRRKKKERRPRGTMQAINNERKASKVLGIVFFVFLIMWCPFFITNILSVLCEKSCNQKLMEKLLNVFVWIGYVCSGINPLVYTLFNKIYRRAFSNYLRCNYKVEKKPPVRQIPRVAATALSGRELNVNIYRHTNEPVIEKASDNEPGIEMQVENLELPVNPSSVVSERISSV
Briefly: Human 5-HT2C receptor radioligand binding assay (agonist site, [125I]DOI). The settings on record: 5-HT2c agonist site; transfected CHO cell membranes; 0.2 nM [125I](±)DOI. On the procedure:
(i) Human 5-HT2C Receptor Radioligand Binding Assay
Affinity of compounds for the agonist site of the […], receptor in transfected CHO cells was determined in a radioligand binding assay essentially as described by Bryant, H. U., et al., Life Sciences (1996) 59(15), 1259-1268.

The target of test [2] is T2, 5HT2C receptors (Homo sapiens, UniProt P28335).
T2 sequence (P28335 33-458): T1 sequence (P28335 33-458)
Nature of the test: Human 5-HT2C functional assay in 1321N1 cells (intracellular calcium, FLIPR). Format: cell-based. The arrangement: expressed in transfected cells; host or cells: 1321N1 cells. The note with it: 5-HT2c agonist activity, maximum calcium response. As to the method: (ii) Human 5-HT2C Functional Assay in 1321N1 Cells
Functional activity was determined by testing the effect of the compounds on intracellular calcium levels in 1321N1 cells stably transfected with the human 5-HT2C receptor. Cells were seeded into 96-well plates at 50,000 cells/well and grown overnight in tissue culture medium (DMEM with Glutamax I (Invitrogen), containing 10% dFCS, 50 μg/mL Gentamicin, 400 μg/mL Geneticin) at 37° C. and 7% CO2. Growth medium was replaced by medium without dFCS for overnight incubation. Cells were loaded with a fluorescent calcium-sensitive dye in the presence of 1% probenicid according to the manufacturer's protocol (Fluo4 AM, Molecular Devices). Serial compound dilutions (final concentrations 10^−10 to 10^−5 M) were added to the cells either alone or in the presence of serotonin (10^−9 M) and the maximum calcium response was determined using a FLIPR instrument (Molecular Devices). Concentration-response curves were fitted using a four-parameter logistic equation (GraphPad Prism). The concentration at which the compound exerts half its maximal effect is named the ‘effective concentration 50’ or ‘EC50’ and is listed in Table 2.
In general terms: Calcium flux is commonly read through the fluorescence of an indicator in the cells.

A further test has as its target T3, 5HT2B receptors (Homo sapiens, UniProt P41595).
T3 construct: expressed in transfected cells; host or cells: CHO-K1 cells
Briefly: Human 5-HT2B functional high throughput screening assay in CHO-K1 cells (calcium flux). The test is classed as cell-based. In a few lines:
(§1)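 Frozen CHO-K1 cells overexpressing the receptor were plated, serum-starved overnight, then loaded with Ca4 dye plus 2.5 mM probenecid for 60 min at room temperature. FLIPR fluorescence (ex 480/em 530 nm, 25 °C) after compound addition was normalized to serotonin; EC50 and Emax came from 4-parameter logistic fits.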

Test [3] addresses T2, 5HT2C receptors. Nature of the test: Human 5-HT2C functional high throughput screening assay in CHO-K1 cells (calcium flux). The test is classed as cell-based. The arrangement: expressed in transfected cells; host or cells: CHO-K1 cells. In a few lines: as §1

A value given as a limit tells only on which side of the number the result lay.

T3 sequence (P41595 whole entry): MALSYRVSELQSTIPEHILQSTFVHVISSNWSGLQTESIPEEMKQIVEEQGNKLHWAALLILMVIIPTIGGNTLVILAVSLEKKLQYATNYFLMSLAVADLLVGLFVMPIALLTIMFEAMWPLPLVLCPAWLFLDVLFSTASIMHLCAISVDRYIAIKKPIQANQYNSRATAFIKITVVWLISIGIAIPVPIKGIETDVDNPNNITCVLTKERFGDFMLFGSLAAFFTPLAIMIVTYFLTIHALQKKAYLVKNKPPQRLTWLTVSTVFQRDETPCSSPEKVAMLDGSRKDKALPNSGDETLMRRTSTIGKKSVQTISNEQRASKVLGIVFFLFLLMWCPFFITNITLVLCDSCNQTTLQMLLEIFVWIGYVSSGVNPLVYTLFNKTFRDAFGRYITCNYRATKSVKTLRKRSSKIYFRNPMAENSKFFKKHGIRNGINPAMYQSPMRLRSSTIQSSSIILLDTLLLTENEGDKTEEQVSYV

Broadly, the Ki is the equilibrium dissociation constant of an inhibitor or competing ligand from its target. Read a high Ki as weaker binding. A word on the EC50: it is the concentration that produces a half-maximal response. In the case of `O=C1NC[C@@H]2CN(Cc3cc(Cl)ccc3F)C[C@H]2c2ccccc21` (relative stereo) [Example 70, Trans-2-(5-chloro-2-fluorobenzyl)-1,2,3,3a,4,5-hexahydrobenzo[e]pyrrolo[3,4-c]azepin-6(10bH)-one], affinity in test [1] was put at a Ki of 36 nM. Also, at 5HT2C receptors [2], the EC50 worked out at 1.76 nM.
In test [1], `O=C1NC[C@@H]2CN(Cc3ccccc3)C[C@@H]2c2c(F)cccc21` (relative stereo) [Example 66, Cis-2-benzyl-10-fluoro-1,2,3,3a,4,5-hexahydrobenzo[c]pyrrolo[3,4-e]azepin-6(10bH)-one] returned a Ki of 290 nM. In addition, the EC50 on 5HT2C receptors [2] worked out at 179 nM.
Take `O=C1NC[C@@H]2CN(Cc3ccccc3Cl)C[C@H]2c2ccccc21` (relative stereo) [Example 33, Trans-2-(2-chlorobenzyl)-1,2,3,3a,4,5-hexahydrobenzo[c]pyrrolo[3,4-e]azepin-6(10bH)-one]: the EC50 on 5HT2C receptors [2] was 32.9 nM.
Still for that read-out and setting: the figure for `O=C1NC[C@@H]2CN(Cc3cccc4ccccc34)C[C@@H]2c2ccccc21` (relative stereo) [Example 43, Cis-2-(naphthalen-1-ylmethyl)-1,2,3,3a,4,5-hexahydrobenzo[e]pyrrolo[3,4-e]azepin-6(10bH)-one] is 81.9 nM; for `Cc1cc(C)cc(CN2C[C@H]3CNC(=O)c4ccccc4[C@@H]3C2)c1` (relative stereo) [Example 22, Trans-2-(3,5-dimethylbenzyl)-1,2,3,3a,4,5-hexahydrobenzo[c]pyrrolo[3,4-e]azepin-6(10bH)-one] it is 5.22 nM; for `Cc1ccc(CN2C[C@H]3CNC(=O)c4ccccc4[C@@H]3C2)cc1C` (relative stereo) [Example 25, Trans-2-(3,4-dimethylbenzyl)-1,2,3,3a,4,5-hexahydrobenzo[c]pyrrolo[3,4-e]azepin-6(10bH)-one] it is 40.2 nM.
In the case of `O=C1NC[C@@H]2CNC[C@@H]2c2ccccc21` (relative stereo) [Example 4, Cis-1,2,3,3a,4,5-hexahydrobenzo[c]pyrrolo[3,4-e]azepin-6(10bH)-one], the EC50 at 5HT2C receptors [2] stood at 202 nM.
The same measure, in the same setting: the figure for `Cc1ccc(C)c(CN2C[C@H]3CNC(=O)c4ccccc4[C@@H]3C2)c1` (relative stereo) [Example 23, Trans-2-(2,5-dimethylbenzyl)-1,2,3,3a,4,5-hexahydrobenzo[c]pyrrolo[3,4-e]azepin-6(10bH)-one] is 8.85 nM.
For orientation: Emax means the maximal effect, on the per cent scale that the assay sets. Turning to `O=C1NC[C@@H]2CN(Cc3ccccc3)C[C@H]2c2ccccc21` (racemic) [Example 1, Trans-2-benzyl-1,2,3,3a,4,5-hexahydrobenzo[c]pyrrolo[3,4-e]azepin-6(10bH)-one], the EC50 at 5HT2B receptors (5-HT2B agonist activity, CHO-K1 cells, calcium flux, read-out: EC50) is greater than 10000 nM; on 5HT2C receptors [2] it was 11.2 nM; on 5HT2C receptors [3] (5-HT2C agonist activity, CHO-K1 cells, calcium flux, read-out: EC50) it was 20 nM. Also, the Emax result on 5HT2B receptors (5-HT2B, maximum functional response as percentage relative to the effect of serotonin) was “inactive”; on 5HT2C receptors [3] (CHO-K1, 5-HT2C, maximum functional response as percentage relative to the effect of serotonin, read-out: Emax), greater than 120%.
Consider `O=C1NC[C@@H]2CN(Cc3ccccc3)C[C@H]2c2c(Cl)cccc21` (relative stereo) [Example 48, Trans-2-benzyl-10-chloro-1,2,3,3a,4,5-hexahydrobenzo[e]pyrrolo[3,4-c]azepin-6(10bH)-one], for which, in test [1], the Ki was 22 nM. Moreover, the EC50 at 5HT2C receptors [2] was found to be 14.1 nM.
With `O=C1NC[C@@H]2CN(Cc3cccc(F)c3)C[C@H]2c2ccccc21` (relative stereo) [Example 34, Trans-2-(3-fluorobenzyl)-1,2,3,3a,4,5-hexahydrobenzo[c]pyrrolo[3,4-e]azepin-6(10bH)-one], the EC50 at 5HT2C receptors [2] was 12 nM.
Take `O=C1NC[C@@H]2CN(Cc3ccccc3)C[C@H]2c2cc(Cl)ccc21` (relative stereo) [Example 51, Trans-2-benzyl-9-chloro-1,2,3,3a,4,5-hexahydrobenzo[e]pyrrolo[3,4-c]azepin-6(10bH)-one]: the Ki in test [1] was 110 nM. The EC50 at 5HT2C receptors [2] worked out at 84 nM.
`O=C1NC[C@@H]2CN(Cc3cc(Cl)cc(Cl)c3)C[C@@H]2c2ccccc21` (relative stereo) [Example 40, Cis-2-(3,5-dichlorobenzyl)-1,2,3,3a,4,5-hexahydrobenzo[c]pyrrolo[3,4-e]azepin-6(10bH)-one]: the EC50 at 5HT2C receptors [2] is 11.3 nM.
Consider `O=C1NC[C@@H]2CNC[C@H]2c2ccc(Cl)cc21` (relative stereo) [Example 46, Trans-8-chloro-1,2,3,3a,4,5-hexahydrobenzo[e]pyrrolo[3,4-c]azepin-6(10bH)-one], for which the Ki in test [1] is 11 nM. Further, at 5HT2C receptors [2], the EC50 was determined as 1.14 nM.
In the same order, the values of `O=C1NC[C@@H]2CNC[C@H]2c2c(Cl)cccc21` (relative stereo) [Example 49] are 170 nM and 48.3 nM.
In the case of `Cc1ccc(CN2C[C@H]3CNC(=O)c4ccccc4[C@@H]3C2)c(C)c1` (relative stereo) [Example 24, Trans-2-(2,4-dimethylbenzyl)-1,2,3,3a,4,5-hexahydrobenzo[c]pyrrolo[3,4-e]azepin-6(10bH)-one], on 5HT2C receptors [2], the EC50 was 45.6 nM.
With `O=C1NC[C@@H]2CNC[C@H]2c2ccccc21` (relative stereo) [Example 2, Trans-1,2,3,3a,4,5-hexahydrobenzo[c]pyrrolo[3,4-e]azepin-6(10bH)-one], in test [1], the affinity, expressed as Ki, was 22 nM.
In the case of `O=C1NC[C@@H]2CN(Cc3cccc(F)c3)C[C@@H]2c2ccccc21` (relative stereo) [Example 42, Cis-2-(3-fluorobenzyl)-1,2,3,3a,4,5-hexahydrobenzo[c]pyrrolo[3,4-e]azepin-6(10bH)-one], at 5HT2C receptors [2], the EC50 turned out to be 18.1 nM.
The same measure, in the same setting: the figure for `O=C1NC[C@@H]2CN(Cc3cccc(Cl)c3)C[C@@H]2c2ccccc21` (relative stereo) [Example 41, Cis-2-(3-chlorobenzyl)-1,2,3,3a,4,5-hexahydrobenzo[c]pyrrolo[3,4-e]azepin-6(10bH)-one] is 4.94 nM.
Turning to `O=C1NC[C@@H]2CN(Cc3cc(Cl)cc(Cl)c3)C[C@H]2c2ccccc21` (relative stereo) [Example 30, Trans-2-(3,5-dichlorobenzyl)-1,2,3,3a,4,5-hexahydrobenzo[c]pyrrolo[3,4-e]azepin-6(10bH)-one], the Ki in test [1] worked out at 3.4 nM. The EC50 at 5HT2C receptors [2] was determined as 2.11 nM.
In turn, `O=C1NC[C@@H]2CN(Cc3ccccc3)C[C@H]2c2cc(Cl)c(Cl)cc21` (relative stereo) [Example 56, Trans-2-benzyl-8,9-dichloro-1,2,3,3a,4,5-hexahydrobenzo[c]pyrrolo[3,4-e]azepin-6(10bH)-one] registered a Ki in test [1] of 70 nM. For the same compound, the EC50 at 5HT2C receptors [2] amounted to 15.3 nM.
With `O=C1NC[C@@H]2CN(Cc3ccccc3F)C[C@H]2c2ccccc21` (relative stereo) [Example 35, Trans-2-(2-fluorobenzyl)-1,2,3,3a,4,5-hexahydrobenzo[c]pyrrolo[3,4-e]azepin-6(10bH)-one], the EC50 on 5HT2C receptors [2] is 12.3 nM.
For the compound `Cc1cccc(CN2C[C@H]3CNC(=O)c4ccccc4[C@@H]3C2)c1` (relative stereo) [Example 26, Trans-2-(3-methylbenzyl)-1,2,3,3a,4,5-hexahydrobenzo[c]pyrrolo[3,4-e]azepin-6(10bH)-one], the EC50 at 5HT2C receptors [2] was found to be 10.3 nM.
As for `O=C1NC[C@@H]2CN(Cc3cccc(Cl)c3)C[C@H]2c2ccccc21` (relative stereo) [Example 32, Trans-2-(3-chlorobenzyl)-1,2,3,3a,4,5-hexahydrobenzo[c]pyrrolo[3,4-e]azepin-6(10bH)-one], at 5HT2C receptors [2], the EC50 came to 19.3 nM.
Turning to `O=C1NC[C@@H]2CN(Cc3cc(Cl)ccc3Cl)C[C@H]2c2ccccc21` (relative stereo) [Example 31, Trans-2-(2,5-dichlorobenzyl)-1,2,3,3a,4,5-hexahydrobenzo[c]pyrrolo[3,4-e]azepin-6(10bH)-one], the EC50 on 5HT2C receptors [2] turned out to be 4.05 nM.
